Key:
SP166 [1] = target: T1, SP166 (Homo sapiens, UniProt Q9BXA5, L244P); assay: FLIPR intracellular Ca++ flux assay in BAF/3 cells stably transfected with SP166; format: cell-based
T1 construct: expressed in transfected cells; host or cells: BAF/3 (murine IL-3 dependent B-cell line), retroviral transduction, G418 selection
T1 sequence (Q9BXA5 1-334 L244P): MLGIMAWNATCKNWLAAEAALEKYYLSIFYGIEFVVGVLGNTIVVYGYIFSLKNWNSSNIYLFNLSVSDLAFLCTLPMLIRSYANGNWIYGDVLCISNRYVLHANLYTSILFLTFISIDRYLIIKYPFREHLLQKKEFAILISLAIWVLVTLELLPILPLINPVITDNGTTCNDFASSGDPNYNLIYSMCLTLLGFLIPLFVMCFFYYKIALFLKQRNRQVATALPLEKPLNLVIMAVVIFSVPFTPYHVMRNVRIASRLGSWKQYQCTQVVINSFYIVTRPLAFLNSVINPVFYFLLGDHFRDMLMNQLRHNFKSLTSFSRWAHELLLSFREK

SP166 [2] = target: T1, SP166; assay: Radioligand saturation and competition binding assay with [3H]-NECA on membranes of cells transfected with SP166; conditions: radioligand saturation and competition assays
Protocol: Membrane preparation: Cells transfected with SP166 as described above were harvested by incubating in 5 mM EDTA/phosphate-buffered saline followed by repeated pipetting. The cells were centrifuged 5 min at 1000×g. The EDTA/PBS was decanted and an equal volume of ice-cold 50 mM Tris-HCl, pH 7.5, was added and cells were broken up with a Polytron (PT10 tip, setting 5, 30 sec). Nuclei and unbroken cells were sedimented at 1000×g for 10 min and then the supernatant was centrifuged at 50,000×g for 10 min. The supernatant was decanted, the pellet was resuspended by Polytron, a sample was taken for protein assay (bicinchoninic acid, Pierce), and the tissue was again centrifuged at 50,000×g. Pellets were stored frozen at […].
Binding assay: For saturation binding, four concentrations of [^3H]-NECA were incubated without and with 10^−5 M adenosine in triplicate with 50 ug of membrane protein in a total volume of 200 μl of 50 mM Tris-HCl, pH 7.5, for 30 min at 30° C. Samples were filtered on GF/B filters and washed thrice with 2 ml of cold Tris buffer. Filters were dried in a microwave oven, impregnated with Meltilex wax scintillant, and counted at 45% efficiency. For competition binding assays, five concentrations of compounds were incubated in triplicate with 18 nM [^3H]NECA and 70 μg of membrane protein under the conditions described above. […]

mock transfected cells = assay: FLIPR intracellular Ca++ flux assay in mock transfected cells

activation of SP166 (change in intracellular Ca++) (SP166 [1]; naturally occurring nucleotides and nucleosides examined, SP166-transfected BAF/3 cells)	binding to the cloned receptor (SP166 [2])	activation of SP166 by adenosine analogs (SP166 [1])	Compound	activation by adenosine in mock transfected cells (mock transfected cells)
specifically activated	able to bind		Nc1ncnc2c1ncn2[C@@H]1O[C@H](CO)[C@@H](O)[C@H]1O [adenosine]	not observed
		able to activate	(R)α-methyladenosine	
		inactive	(S)α-methyladenosine	
		able to activate	Nα-methyladenosine	

From patent US7465789B2, “Adenosine receptor” (Schering Corporation, priority 2001, dated 2008)
